Results as given in ChEMBL document CHEMBL6103575, “Design, synthesis and evaluation of (E)-1-(4-(2-(1H-pyrazol-5-yl)vinyl)phenyl) derivatives as next generation selective RET inhibitors overcoming RET solvent front mutations (G810C/R)” (Eur J Med Chem, 2025).

Experiments:
BaF3 [1] = experiment: Antiproliferative activity against mouse BaF3 cells harbouring CCDC6-RET assessed as inhibition of cell proliferation incubated for 72 hrs by CCK-8 assay; assay type: functional, cell-based; conditions: BaF3, 72 h
BaF3 [2] = experiment: Antiproliferative activity against mouse BaF3 cells harbouring CCDC6-RET G810R mutant assessed as inhibition of cell proliferation incubated for 72 hrs by CCK-8 assay; assay type: functional, cell-based; conditions: BaF3, 72 h
BaF3 [3] = experiment: Antiproliferative activity against mouse BaF3 cells harbouring CCDC6-RET V804M mutant assessed as inhibition of cell proliferation incubated for 72 hrs by CCK-8 assay; assay type: functional, cell-based; conditions: BaF3, 72 h
BaF3 [4] = experiment: Antiproliferative activity against mouse BaF3 cells harbouring CCDC6-RET G810C mutant assessed as inhibition of cell proliferation incubated for 72 hrs by CCK-8 assay; assay type: functional, cell-based; conditions: BaF3, 72 h
BaF3 [5] = experiment: Antiproliferative activity against mouse BaF3 cells harbouring KIF5B-RET G810R mutant assessed as inhibition of cell proliferation; assay type: functional, cell-based
BaF3 [6] = experiment: Antiproliferative activity against mouse BaF3 cells harbouring KIF5B-RET G810C mutant assessed as inhibition of cell proliferation; assay type: functional, cell-based
BaF3 [7] = experiment: Antiproliferative activity against mouse BaF3 cells harbouring KIF5B-RET assessed as inhibition of cell proliferation; assay type: functional, cell-based
BaF3 [8] = experiment: Antiproliferative activity against mouse BaF3 cells harbouring CCDC6-RET V804M mutant assessed as inhibition of cell proliferation; assay type: functional, cell-based
[9] = biological target: Proto-oncogene tyrosine-protein kinase receptor Ret (Homo sapiens, UniProt P07949, G810R); experiment: Inhibition of RET G810R mutant (unknown origin)
[10] = biological target: Proto-oncogene tyrosine-protein kinase receptor Ret (Homo sapiens, UniProt P07949, V804M); experiment: Inhibition of RET V804M mutant (unknown origin)
[11] = biological target: Kinesin-1 heavy chain/ Tyrosine-protein kinase receptor RET (Homo sapiens, UniProt P07949); experiment: Inhibition of wild type KIF5B-RET (unknown origin); assay type: protein assay
BaF3 [12] = experiment: Antiproliferative activity against mouse BaF3 cells harbouring CCDC6-RET
BaF3 [13] = experiment: Antiproliferative activity against mouse BaF3 cells harbouring CCDC6-RET G810R mutant; assay type: functional, cell-based
BaF3 [14] = experiment: Antiproliferative activity against mouse BaF3 cells harbouring CCDC6-RET G810C mutant; assay type: functional, cell-based
BaF3 [15] = experiment: Antiproliferative activity against mouse BaF3 cells harbouring CCDC6-RET V804M mutant; assay type: functional, cell-based

Kinesin-1 heavy chain/ Tyrosine-protein kinase receptor RET, sequence (P07949 whole entry): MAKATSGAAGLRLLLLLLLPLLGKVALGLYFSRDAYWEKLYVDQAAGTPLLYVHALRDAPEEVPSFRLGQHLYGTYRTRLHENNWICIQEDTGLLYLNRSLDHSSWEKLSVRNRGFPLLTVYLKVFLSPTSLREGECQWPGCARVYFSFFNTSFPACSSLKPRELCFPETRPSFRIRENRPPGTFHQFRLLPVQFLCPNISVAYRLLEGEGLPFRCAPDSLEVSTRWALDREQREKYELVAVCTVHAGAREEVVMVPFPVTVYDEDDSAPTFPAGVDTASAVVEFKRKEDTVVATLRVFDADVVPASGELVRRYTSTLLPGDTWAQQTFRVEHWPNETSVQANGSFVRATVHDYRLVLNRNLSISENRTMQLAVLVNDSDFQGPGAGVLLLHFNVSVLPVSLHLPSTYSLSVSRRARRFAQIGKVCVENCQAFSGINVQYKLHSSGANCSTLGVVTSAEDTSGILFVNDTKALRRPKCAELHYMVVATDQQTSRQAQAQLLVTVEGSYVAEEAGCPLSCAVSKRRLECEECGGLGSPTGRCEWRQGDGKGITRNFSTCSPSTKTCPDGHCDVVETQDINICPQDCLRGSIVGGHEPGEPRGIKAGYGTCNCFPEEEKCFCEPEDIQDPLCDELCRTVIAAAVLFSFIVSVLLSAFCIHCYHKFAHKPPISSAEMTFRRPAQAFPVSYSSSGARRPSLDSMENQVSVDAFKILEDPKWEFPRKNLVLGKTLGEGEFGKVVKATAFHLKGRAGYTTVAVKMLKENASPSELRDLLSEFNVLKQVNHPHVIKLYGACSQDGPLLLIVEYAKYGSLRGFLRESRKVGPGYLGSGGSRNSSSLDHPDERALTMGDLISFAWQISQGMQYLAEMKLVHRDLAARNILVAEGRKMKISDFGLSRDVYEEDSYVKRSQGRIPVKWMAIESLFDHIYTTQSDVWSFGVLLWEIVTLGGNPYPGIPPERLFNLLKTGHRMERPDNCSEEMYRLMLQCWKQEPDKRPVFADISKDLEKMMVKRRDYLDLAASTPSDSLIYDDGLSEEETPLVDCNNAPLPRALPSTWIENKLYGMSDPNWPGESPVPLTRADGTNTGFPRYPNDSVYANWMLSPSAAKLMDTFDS
Kinesin-1 heavy chain/ Tyrosine-protein kinase receptor RET, sequence (P33176 whole entry, further chain): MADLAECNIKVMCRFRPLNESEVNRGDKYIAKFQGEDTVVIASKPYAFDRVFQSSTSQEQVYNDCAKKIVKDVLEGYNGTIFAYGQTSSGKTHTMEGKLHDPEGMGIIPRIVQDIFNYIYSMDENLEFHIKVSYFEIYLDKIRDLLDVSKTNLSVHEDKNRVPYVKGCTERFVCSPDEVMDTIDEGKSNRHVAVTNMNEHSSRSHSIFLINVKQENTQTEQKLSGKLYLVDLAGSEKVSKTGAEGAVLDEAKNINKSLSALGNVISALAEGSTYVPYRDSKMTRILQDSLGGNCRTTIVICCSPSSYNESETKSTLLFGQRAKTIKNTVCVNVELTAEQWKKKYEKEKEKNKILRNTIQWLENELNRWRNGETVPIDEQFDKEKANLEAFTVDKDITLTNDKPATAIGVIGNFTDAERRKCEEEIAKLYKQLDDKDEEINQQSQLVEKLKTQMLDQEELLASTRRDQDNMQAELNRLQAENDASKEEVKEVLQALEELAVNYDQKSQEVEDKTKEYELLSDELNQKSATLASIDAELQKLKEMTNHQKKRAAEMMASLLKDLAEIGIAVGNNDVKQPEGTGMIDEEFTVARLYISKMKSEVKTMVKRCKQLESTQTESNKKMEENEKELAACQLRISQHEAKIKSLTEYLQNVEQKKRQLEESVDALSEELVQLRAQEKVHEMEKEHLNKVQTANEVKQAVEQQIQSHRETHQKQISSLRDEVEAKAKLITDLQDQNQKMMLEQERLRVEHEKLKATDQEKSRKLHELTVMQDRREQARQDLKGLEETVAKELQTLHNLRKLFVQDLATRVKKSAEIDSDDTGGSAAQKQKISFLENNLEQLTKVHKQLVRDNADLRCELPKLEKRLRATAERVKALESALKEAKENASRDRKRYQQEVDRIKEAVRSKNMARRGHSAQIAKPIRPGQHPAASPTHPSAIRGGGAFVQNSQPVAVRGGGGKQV
Proto-oncogene tyrosine-protein kinase receptor Ret (Homo sapiens, UniProt P07949, V804M), sequence (P07949 29-1114 V804M limits assumed): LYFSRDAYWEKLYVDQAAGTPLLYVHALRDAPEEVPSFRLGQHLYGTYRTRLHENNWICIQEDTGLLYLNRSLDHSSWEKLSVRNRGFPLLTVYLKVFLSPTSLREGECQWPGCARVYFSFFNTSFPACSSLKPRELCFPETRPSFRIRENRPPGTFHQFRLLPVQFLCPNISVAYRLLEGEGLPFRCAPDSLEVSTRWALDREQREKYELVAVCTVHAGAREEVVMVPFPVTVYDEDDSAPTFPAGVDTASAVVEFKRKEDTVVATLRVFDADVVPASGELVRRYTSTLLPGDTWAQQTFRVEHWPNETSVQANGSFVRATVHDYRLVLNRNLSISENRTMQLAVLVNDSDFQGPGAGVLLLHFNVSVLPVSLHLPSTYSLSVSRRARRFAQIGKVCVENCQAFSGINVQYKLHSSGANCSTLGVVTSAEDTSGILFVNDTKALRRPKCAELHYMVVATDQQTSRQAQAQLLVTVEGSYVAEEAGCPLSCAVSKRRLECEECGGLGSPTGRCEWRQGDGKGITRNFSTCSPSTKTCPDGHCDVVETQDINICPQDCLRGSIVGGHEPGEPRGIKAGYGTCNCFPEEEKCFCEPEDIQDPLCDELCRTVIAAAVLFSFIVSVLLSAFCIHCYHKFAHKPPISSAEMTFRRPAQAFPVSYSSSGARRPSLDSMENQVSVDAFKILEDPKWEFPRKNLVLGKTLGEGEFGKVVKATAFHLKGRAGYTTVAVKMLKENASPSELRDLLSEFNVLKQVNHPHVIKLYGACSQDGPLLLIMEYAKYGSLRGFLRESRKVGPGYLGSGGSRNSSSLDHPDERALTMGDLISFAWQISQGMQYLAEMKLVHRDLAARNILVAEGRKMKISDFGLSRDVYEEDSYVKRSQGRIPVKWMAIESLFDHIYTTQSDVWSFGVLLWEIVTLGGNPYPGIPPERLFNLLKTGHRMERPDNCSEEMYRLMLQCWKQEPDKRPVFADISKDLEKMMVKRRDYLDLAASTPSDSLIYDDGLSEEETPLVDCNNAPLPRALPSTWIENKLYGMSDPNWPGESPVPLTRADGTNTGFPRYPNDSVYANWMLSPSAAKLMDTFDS
Proto-oncogene tyrosine-protein kinase receptor Ret (Homo sapiens, UniProt P07949, G810R), sequence (P07949 29-1114 G810R limits assumed): as the sequence (P07949 29-1114 V804M limits assumed) above, with M776V, G782R counted along it

Structure (SMILES)	IC50 (BaF3 [1]) [nM]	IC50 (BaF3 [2]) [nM]	IC50 (BaF3 [3]) [nM]	IC50 (BaF3 [4]) [nM]	also measured
COc1cncc(-c2cn[nH]c2/C=C/c2ccc(NC(=O)Nc3cc(C(C)(C)C(F)(F)F)on3)cc2)c1	46	133	554	46	
COc1cncc(-c2cn[nH]c2/C=C/c2ccc(NC(=O)Nc3cc(C(C)(C)C(F)(F)F)on3)cc2OC)c1	133	443	1050	700	
COc1cncc(-c2cnn(C)c2/C=C/c2ccc(NC(=O)Nc3cc(C(C)(C)C(F)(F)F)on3)cc2)c1	223	836	1520	641	
CC(C)(c1cc(NC(=O)Nc2ccc(/C=C/c3[nH]ncc3-c3cncc(C#N)c3)cc2)no1)C(F)(F)F	175	278	844	205	
C[C@H]1CNC(=O)c2cnn3cc4c(nc23)N(Cc2cc(F)cnc2O1)[C@@H]1CCC[C@@H]1O4 [ENBEZOTINIB]					IC50 (BaF3 [5]): 1 nM; IC50 (BaF3 [6]): 1 nM; IC50 (BaF3 [7]): 1 nM
COc1ccc(CN2[C@@H]3C[C@H]2CN(c2ccc(-c4cc(OCC(C)(C)O)cn5ncc(C#N)c45)cn2)C3)cn1					IC50 (BaF3 [8]): 26 nM
COc1ccc(-c2c[nH]nc2-c2ccc(NC(=O)Nc3cc(C(C)(C)C(F)(F)F)on3)cc2)cn1	435	658	231	363	
COc1cncc(-c2cn[nH]c2/C=C/c2ccc(NC(=O)Nc3cc(C(C)(C)C(F)(F)F)on3)c(OC)c2)c1	210	352	754	404	
COc1cncc(-c2cn[nH]c2/C=C/c2ccc(NC(=O)Nc3cc(C(C)(C)C(F)(F)F)on3)c(F)c2)c1	12.3	22	564	45.5	
COC(=O)c1cncc(-c2cn[nH]c2/C=C/c2ccc(NC(=O)Nc3cc(C(C)(C)C(F)(F)F)on3)cc2)c1	89.4	428	1020	377	
CN1CCN(Cc2ccc(NC(=O)c3cncc(C#Cc4cnc(N)c5ncccc45)c3)cc2C(F)(F)F)CC1					IC50 [9]: 28.8 nM; IC50 [10]: 28.8 nM; IC50 [11]: 3.89 nM
CNC(=O)c1cncc(-c2cn[nH]c2/C=C/c2ccc(NC(=O)Nc3cc(C(C)(C)C(F)(F)F)on3)cc2)c1	222	1210	3070	737	
CC(C)(c1cc(NC(=O)Nc2ccc(/C=C/c3[nH]ncc3-c3cncc(F)c3)cc2)no1)C(F)(F)F	147	143	594	42	
COc1cncc(-c2cn(C)nc2/C=C/c2ccc(NC(=O)Nc3cc(C(C)(C)C(F)(F)F)on3)cc2)c1	126	1130	719	421	
CO[C@]1(C(=O)N[C@@H](C)c2ccc(-n3cc(F)cn3)nc2)CC[C@H](c2nc(C)cc(Nc3cc(C)[nH]n3)n2)CC1 [PRALSETINIB]	3.9	320	4.9	104	IC50 (BaF3 [12]): 5 nM; IC50 (BaF3 [13]): 358 nM; IC50 (BaF3 [14]): 114 nM; IC50 (BaF3 [15]): 4.1 nM
COc1cncc(-c2cn[nH]c2/C=C/c2ccc(NC(=O)Nc3cc(C(C)(C)C(F)(F)F)on3)cc2Cl)c1	108	246	421	309	
COc1cncc(-c2cn[nH]c2/C=C/c2ccc(NC(=O)Nc3cc(C(C)(C)C(F)(F)F)on3)cc2F)c1	127	179	536	173	
COc1cncc(-c2c[nH]nc2/C=C\c2ccc(NC(=O)Nc3cc(C(C)(C)C(F)(F)F)on3)cc2)c1	406	812	1780	694	
COc1ccc(-c2cn[nH]c2/C=C/c2ccc(NC(=O)Nc3cc(C(C)(C)C(F)(F)F)on3)cc2)cn1	98.5	301	2020	117	
COc1cncc(-c2cn[nH]c2/C=C/c2ccc(NC(=O)Nc3cc(C(C)(C)C(F)(F)F)on3)cc2C)c1	271	471	632	499	
COc1cncc(-c2cn[nH]c2/C=C/c2cccc(NC(=O)Nc3cc(C(C)(C)C(F)(F)F)on3)c2)c1	1060	2200	1810	777	
COc1cncc(-c2cn[nH]c2/C=C/c2ccc(NC(=O)Nc3cc(C(C)(C)C(F)(F)F)on3)c(C)c2)c1	13.1	29.4	803	26.4	
COc1ccc(-c2cn[nH]c2CCc2ccc(NC(=O)Nc3cc(C(C)(C)C(F)(F)F)on3)cc2)cn1	790	1030	3610	718	
COc1cc(-c2cn[nH]c2/C=C/c2ccc(NC(=O)Nc3cc(C(C)(C)C(F)(F)F)on3)cc2)ccn1	85.4	208	1220	121	
